Measured values reported in patent publication US20230024192A1, “Citrate-Functionalized Polymeric Surfactants Based Upon Alkyl Polyglucosides” (Colonial Chemical, Inc., priority 2019, published 2023).

How the values were obtained:
[1] = Salt curves, viscosity build in cleansing formulations (SLS- or AOS-based blends); format: physicochemical; conditions: incorporated into typical cleansing formulations with SLS or AOS, cocamidopropyl betaine, cocamide MEA; salt curves FIGS. 1 and 2
Protocol: The generalized cleansing formulations are shown in Table 1, where various anionic surfactants, or blends of anionic surfactants, were added to a betaine and an alkanolamide surfactant and water. The balance of the weight in these formulas is water. […] Salts curves were generated for both sulfate-free blends based on AOS, Sodium C14-16 Olefin Sulfonate (FIG. 2), as well as sodium lauryl sulfate-based blends (FIG. 1). The salt curves in FIG. 1 are for the following: 1) Sodium Lauryl Sulfate (SLS) alone: 2) Sodium Lauryl Sulfate:Water, 2:1; 3) Sodium Lauryl Sulfate:Disodium Laurylglucosides Hydroxypropyl Citrate 2:1; and 4) Sodium Lauryl Sulfate:Disodium Laurylglucosides Hydroxypropyl Citrate, 1:1. The salt curves in FIG. 2 are for the following: 1) Sodium C14-16 Olefin Sulfonate (AOS) alone: 2) Sodium C14-16 Olefin Sulfonate:Water, 2:1; 3) Sodium C14-16 Olefin Sulfonate:Disodium Laurylglucosides Hydroxypropyl Citrate, 2:1; and 4) Sodium C14-16 Olefin Sulfonate:Disodium Laurylglucosides Hydroxypropyl Citrate, 1:1. [table] […] Some formulations can achieve desired viscosity levels without any added salt, meeting the demand for that type of claim by some shampoo manufacturers.

Zein = Zein Test, irritation potential of surfactants / cleansing formulations by amount of zein solubilized; design: species or system corn; conditions: anionic cleanser, FIG. 3
Protocol: Surfactants of the current invention were tested for their ability to reduce the irritation potential of cleansing formulations. We used the Zein Test [referenced in J. Surfact.
The Zein test is intended for determining the irritation potential of a surfactant or surfactant-based product. Zein, a corn protein similar to keratin present in the skin and hair, is insoluble in water unless it is denatured by an irritant. In this test, the irritant is a surfactant or surfactant-based product, and irritation potential is predicted by the amount of zein solubilized.

Substance: Disodium Laurylglucosides Hydroxypropyl Citrate
- viscosity build [1]: fast and high viscosity build
- irritation potential in cleansing formulations (Zein Test) (Zein): effective at reducing irritation potential
